Measured values as given in PubChem BioAssay (NCI).
“And” between values parts separate entries of the source, which are not always exact repeats. Equal values may be shown once.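 Test compounds were applied to cells in 96-well plates for 48 hours at 5 doses. Abbreviation: GI50, concentration required for 50% inhibition of growth. TGI denotes the concentration required for complete inhibition of growth.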

Assays:
Assay in all cases: NCI tumour cell line growth inhibition, 48 h
COLO 205 colon = system: COLO 205 colon
NCI-H522 lung = system: NCI-H522 lung
M14 melanoma = system: M14 melanoma
A498 renal = system: A498 renal
HCT-116 colon = system: HCT-116 colon
IGROV1 ovarian = system: IGROV1 ovarian
SF-539 CNS = system: SF-539 CNS
OVCAR-4 ovarian = system: OVCAR-4 ovarian
NCI-H460 lung = system: NCI-H460 lung
DU-145 prostate = system: DU-145 prostate

| Compound | TGI (COLO 205 colon) | TGI (NCI-H522 lung) | TGI (M14 melanoma) | TGI (A498 renal) | TGI (HCT-116 colon) | TGI (IGROV1 ovarian) | TGI (SF-539 CNS) | TGI (OVCAR-4 ovarian) | TGI (NCI-H460 lung) | TGI (DU-145 prostate) | GI50 (COLO 205 colon) | GI50 (NCI-H522 lung) | GI50 (M14 melanoma) | GI50 (A498 renal) | GI50 (HCT-116 colon) | GI50 (IGROV1 ovarian) | GI50 (SF-539 CNS) | GI50 (OVCAR-4 ovarian) | GI50 (NCI-H460 lung) | GI50 (DU-145 prostate) |
| --- | --- | --- | --- | --- | --- | --- | --- | --- | --- | --- | --- | --- | --- | --- | --- | --- | --- | --- | --- | --- |
| Cc1c2cnccc2c(C)c2c1c1ccccc1n2CCOC(=O)c1ccccc1 | 47 µM | 31.1 µM | > 100 µM | 32.2 µM | 28.2 µM | 42.7 µM | 20.9 µM | 49.3 µM | 16 µM | > 100 µM |  |  |  |  |  |  |  |  |  |  |
| CCOC(=O)c1noc2c1CCc1c-2cn(Cc2ccc(OC)cc2)c1-c1cc(OC)c(OC)c(OC)c1 | 7.82 µM | > 100 µM | > 100 µM | 42 µM | > 100 µM | > 100 µM | 6.56 µM | > 100 µM | > 100 µM | 6.14 µM | 1.77 µM | 0.369 µM | 0.41 µM | 2.77 µM | 0.399 µM | 2.45 µM | 1.84 µM | 20.5 µM | 1 µM | 2.32 µM |
| COc1cc(/C=C2\CC3C4CC=C5CC(OC(C)=O)CC[C@]5(C)C4CC[C@]3(C)C2=O)ccc1OCCN1CCCC1 (stereo partly drawn) | > 63.8 µM | 26.6 µM | 2.9 µM | 43.5 µM | 3.14 µM | > 44.7 µM | 9.82 µM | > 19.6 µM |  | 26.6 µM | 4.83 µM | 10.5 µM | 1.42 µM | 23.7 µM | 1.52 µM | 5.81 µM | 3.63 µM | 2.38 µM | 2.54 µM | 13.6 µM |
| CC[C@@]1(OP(=O)(O)O)C(=O)OCc2c1cc1n(c2=O)Cc2cc3ccccc3nc2-1 | 5.64 µM | 3 µM and 1.88 µM | 1.87 µM and 5.28 µM | 0.559 µM and 0.96 µM | 1.51 µM | 4.51 µM and 5.58 µM | 0.537 µM and 0.373 µM | 6.44 µM and 4.85 µM | 0.666 µM | 0.598 µM | 1.21 µM | 0.0688 µM | 0.173 µM | 0.128 µM |  | 0.377 µM | 0.0472 µM |  |  |  |
| COc1ccc(-c2csc3c2-n2cccc2C3=O)cc1 | 5.78 µM | 0.00998 µM and 0.0802 µM |  | 1.17 µM and 3.15 µM | > 45.4 µM | > 88.5 µM | 2.39 µM | > 100 µM | > 43 µM |  |  | 0.00234 µM and 0.0218 µM |  | 0.124 µM | 0.0199 µM | 0.0229 µM |  | 2.58 µM | 0.273 µM | 0.0601 µM |
| ClC1=C(Cl)C(Cl)(C2(Cl)C(Cl)=C(Cl)C(Cl)=C2Cl)C(Cl)=C1Cl | 0.462 µM | 0.341 µM | 0.716 µM | 3.19 µM | 0.439 µM | 3.16 µM | 3.66 µM | 0.509 µM | 3.8 µM | 1.99 µM | 0.202 µM | 0.16 µM | 0.252 µM | 1.71 µM | 0.189 µM | 1.48 µM | 1.74 µM | 0.2 µM | 1.89 µM | 0.633 µM |
| CC(C)=CC[C@@H]1CC2(CC=C(C)C)C(=O)C(OC3(C(=O)c4ccccc4)C(=O)C4(CC=C(C)C)C[C@@H](CC=C(C)C)C(C)(C)C(CC=C(C)C)(C4=O)C3=O)(C(=O)c3ccccc3)C(=O)C(CC=C(C)C)(C2=O)C1(C)C (stereo partly drawn) | 3.22 µM | 3.72 µM | 3.13 µM | 2.09 µM | 2.3 µM | 7 µM | 2.65 µM |  | 3.07 µM | 3.88 µM | 1.2 µM | 1.07 µM | 1.13 µM | 1.01 µM | 0.953 µM | 1.63 µM | 1.14 µM |  | 1.27 µM | 1.35 µM |
| COC(=O)c1c2c(c(C)[n+]([O-])c1C)C(=O)C(NCc1ccc(OC)cc1)=CC2=O | 2.75 µM | 4.73 µM | 3.71 µM | 4.97 µM | 7.13 µM | 3.45 µM | 3.39 µM | 2.38 µM | 6.39 µM | 10.2 µM | 0.839 µM | 1.95 µM | 1.81 µM | 2.06 µM | 2.17 µM | 1.5 µM | 1.68 µM | 1.12 µM | 1.7 µM | 3.02 µM |
| CCCCn1c(=O)[nH]c(N)c([C@@H]2c3c([nH]c(=O)n(CCCC)c3=O)Oc3ccc4ccccc4c32)c1=O | 4.03 µM | 6.36 µM | 4.2 µM | 27.8 µM | 3.02 µM | 4.78 µM | 20.4 µM | 10.8 µM | 5.05 µM | 3.25 µM | 2 µM | 2.57 µM | 1.92 µM | 13.7 µM | 1.53 µM | 1.89 µM | 7.86 µM | 2.26 µM | 2.19 µM | 1.8 µM |
| COc1ccc(C2=NN(C(N)=S)C(c3ccc4c(c3)OCO4)C2)cc1 (stereo not drawn) | 11.5 µM | 16.8 µM | 35.4 µM | 9.07 µM | 22.9 µM | 6.8 µM | 5.21 µM | > 100 µM | 6.83 µM | 4.56 µM | 3.39 µM | 2.4 µM | 3.77 µM | 2.24 µM | 2.96 µM | 2.42 µM | 2.12 µM | 3.4 µM | 2.6 µM | 1.94 µM |
| Cn1ncnc1[C@@H]1c2n[nH]c(=O)c3cc(F)cc(c23)N[C@H]1c1ccc(F)cc1 | > 100 µM | > 100 µM | > 100 µM | > 100 µM | > 100 µM | > 100 µM | > 100 µM | > 100 µM | > 100 µM | > 100 µM | > 100 µM | > 100 µM | > 100 µM | > 100 µM | > 100 µM | > 100 µM | > 100 µM | > 100 µM | 78.4 µM | > 100 µM |
| COc1cccc2c1nc(C(F)F)n2-c1nc(-c2ccc(NS(=O)(=O)CCN(C)C)cc2)nc(N2CCOCC2)n1 | 2.64 µM | 1.26 µM | > 100 µM | 0.279 µM | 2.98 µM | 0.154 µM | 2.63 µM | 2.58 µM | 1.33 µM | 11.7 µM | 0.0908 µM | 0.081 µM | 0.243 µM | 0.0337 µM | 0.456 µM | 0.0261 µM | 0.197 µM | 0.138 µM | 0.0883 µM | 0.162 µM |
